How the values were obtained:
[1] = system: thrombomodulin (TM) antigen in normal human umbilical vein endothelial cells (HUVECs); assay: TM antigen level in HUVECs by enzyme immunoassay after 24 h incubation with statin; assay type: cell-based; conditions: 10^-7 M to 10^-3 M, control (0.01% DMSO) = 100%, FIG. 1
Protocol: Normal human umbilical vein endothelial cells (HUVECs) were plated at a density of 2×10^5 cells/ well in a 24-well plate with HuMedia-EG2 medium (Kurabo Inc.) to which 2% (vol/vol) fetal bovine serum, 50 μg/ml gentamicin, 50 ng/ml amphotericin B, 10 ng/ml hEGF, 5 ng/ml hFGF-B, 1 μg/ml hydrocortisone and 10 μg/ml heparin were added. Subsequently, each test substance (pitavastatin, fluvastatin and pravastatin) was added to the medium at a final concentration of 10^−7 M to 10^−3 M, and incubated for 24 hours with 5% CO2 at 37° C. After the incubation, the cells were washed 3 times with a phosphate buffer solution (pH 7.4), and suspended in 50 mmol/L Tris-HCl (pH 7.4) that contained 0.15 mol/L NaCl, 0.5% Triton X-100 and 1 mmol/L benzamide hydrchloride, then, TM was extracted. The levels of TM antigen were measured by enzyme immunoassay using the monoclonal antibodies TMmAb 2, 11 and 20. In the case where the value of the control (containing an equivalent weight of DMSO (0.01%)) is assigned to 100%, the effects on the TM antigen levels existing in the cellular proteins due to the addition of each test substance were measured.

[2] = system: TM m-RNA expression in HUVECs; assay: TM mRNA expression in HUVECs by Northern blot, time course; assay type: cell-based, human; conditions: 10^-5 M, incubated for the indicated time, FIG. 2
Protocol: HUVECs were plated in HuMedia-EG2 medium (Kurabo Inc.) to which 2% (vol/vol) fetal bovine serum, 50 μg/ml gentamicin, 50 ng/ml amphotericin B, 10 ng/ml hEGF, 5 ng/ml hFGF-B, 1 μg/ml hydrocortisone and 10 μg/ml heparin were added. Subsequently, pitavastatin (at a final concentration of 10^−5 M) was added to the medium, and incubated for the indicated time with 5% CO2 at 37° C. Total RNA was extracted by using TRIZOL reagent (Life Technologies, Inc.) and the levels of TM m-RNA expression were measured by the Northern blot method, which is a usual method.

O=C(O)C[C@H](O)C[C@H](O)/C=C/c1c(C2CC2)nc2ccccc2c1-c1ccc(F)cc1 [pitavastatin, (+)-(3R, 5S, 6E)-7-[2-cyclopropyl-4-(4-fluorophenyl)-3-quinolyl]-3,5-dihydroxy-6-heptenoic acid]
ratio of the TM antigen level/cellular protein to the control [1]: significant increase level | ratio of the TM expression level (TM m-RNA) to the control, time course [2]: increased drastically after 12 hours
